# Data: patent publication US9815788B2, “Anti-angiogenic compounds” (University College Dublin National University of Ireland, …, priority 2012, dated 2017)
# Legend:
# [1] = test system: zebrafish hyaloid vasculature; assay: Quantification of primary hyaloid vasculature branch number in Tg(fli1:EGFP) zebrafish; type: in vivo; settings: for inhibition of developmental angiogenesis of the hyaloid vasculature (number of primary hyaloid vessels): typically 10 μM or 5 μM, from 24 hpf, vs DMSO control; for dose-dependent inhibition of development of hyaloid vessels: decreasing doses 20, 10, 7.5, 5, 2.5, 1 and/or 0.5 μM
# Experimental: (§1) All experiments were carried out under ethical approval granted by the UCD animal research ethics committee. Tg(fli1:EGFP) zebrafish were maintained according to standard procedures on a 14 hr light/10 hr dark cycle at 28° C. Embryos were obtained by natural spawning and developmental stages established by time and morphological criteria. […] Larvae were euthanised, and fixed in 4% PFA at 4° C. overnight before analysis.
# Overall patterning of the vasculature (fin, gut and intersegmental vessels) was examined for abnormalities. Right lenses were dissected from the larvae and transferred to depression slides for observation under epi-fluorescence in the Olympus SZX16. Patterning of the hyaloid vessels on the treated larval lenses was compared to DMSO controls and the archetypal pattern previously described (Alvarez et al., 2007; Alvarez et al., 2009).
# as §1, with “analysis. Lenses were dissected from the larvae and transferred to depression slides for observation under epi-fluorescence in the Olympus SZX16. Patterning of the hyaloid vessels on the treated larval lenses was compared to DMSO controls and the archetypal pattern previously described (Alvarez et al., 2007; Alvarez et al., 2009).” for “analysis.”
# [2] = test system: zebrafish intersegmental vessels; assay: Quantification of intersegmental vessel number in zebrafish; type: in vivo
# Experimental: […] Larvae were manually dechorionated, euthanised, and fixed in 4% PFA at 4° C. overnight before analysis. The larvae were then washed with PBS and transferred to depression slides for observation under epi-fluorescence in an Olympus SZX16 fluorescent microscope. The number of intersegmental vessels was counted and the average number was graphed for each drug.
# Larvae were manually dechorionated, euthanised, and fixed in 4% PFA at 4° C. overnight before analysis. The larvae were then washed with PBS and transferred to depression slides for observation under epi-fluorescence in an Olympus SZX16 fluorescent microscope. The number of intersegmental vessels was counted and the average number was graphed for each drug.
SMILES,inhibition of developmental angiogenesis of the hyaloid vasculature (number of primary hyaloid vessels) [1],"inhibition of developmental angiogenesis of intersegmental vessels (number of intersegmental vessels) ([2]; 10 μM, from 6 hpf)",further results
"CCN1CCc2cc(OC)c(OC)cc2C1c1ccc2c(c1)OCO2 (racemic) [Compound 11F-CC10, (rac)-1-Benzo[1,3]dioxol-5-yl-6,7-dimethoxy-2-ethyl-1,2,3,4-tetrahydro-isoquinoline]",inhibit developmental angiogenesis of the zebrafish hyaloid vasculature in a statistically significant manner,,
"COc1ccc(Br)cc1C=Cc1ccc2ccccc2n1 [Compound 11B-074, 2-[2-(5-bromo-2-methoxyphenyl)vinyl]quinoline]",inhibit developmental angiogenesis of the zebrafish hyaloid vasculature in a statistically significant manner,,
"COc1ccc(I)cc1C=Cc1ccc2ccccc2n1 [Compound 11B-412, 2-[2-(5-iodo-2-methoxyphenyl)vinyl]quinoline]",,inhibit developmental angiogenesis of zebrafish intersegmental vessels in a statistically significant manner,
"Cc1cccc(/C=C/c2ccc3cccc(O)c3n2)c1O [Compound 11B-438, 2-[(E)-2-(2-Hydroxy-3-methylphenyl)vinyl]-8-quinolinol]",inhibit developmental angiogenesis of the zebrafish hyaloid vasculature in a statistically significant manner,inhibit developmental angiogenesis of zebrafish intersegmental vessels in a statistically significant manner,
"Oc1ccccc1/C=C/c1cc(O)c2ccccc2n1 [Compound 11B-470, 2-[(E)-2-(2-Hydroxyphenyl)vinyl]-4-quinolinol]",,inhibit developmental angiogenesis of zebrafish intersegmental vessels in a statistically significant manner,
"Oc1cccc2ccc(C=Cc3ccccc3Cl)nc12 [Compound 11B-736, 2-[2-(2-chlorophenyl)vinyl]-8-quinolinol]",,inhibit developmental angiogenesis of zebrafish intersegmental vessels in a statistically significant manner,
"CCOc1ccccc1C=Cc1ccc2cccc(O)c2n1 [Compound 11B-739, 2-[2-(2-ethoxyphenyl)vinyl]-8-quinolinol]",inhibit developmental angiogenesis of the zebrafish hyaloid vasculature in a statistically significant manner,,
"Cc1ccc2nc(/C=C/c3cccc(O)c3)ccc2c1 [Compound 11B-814, 3-[(E)-2-(6-Methyl-2-quinolinyl)vinyl]phenol]",inhibit developmental angiogenesis of the zebrafish hyaloid vasculature in a statistically significant manner,,dose-dependent inhibition of development of hyaloid vessels [1]: dose-dependent effect
"Oc1cccc(C=Cc2ccc3ccccc3n2)c1 [Compound 11B_CC2, 3-(2-Quinolin-2-yl-vinyl)-phenol]",inhibit developmental angiogenesis of the zebrafish hyaloid vasculature in a statistically significant manner,inhibit developmental angiogenesis of zebrafish intersegmental vessels in a statistically significant manner,
"Cl.Oc1cccc(C=Cc2ccc3ccccc3n2)c1 [Compound 11B_CC2_HCl, 3-(2-Quinolin-2-yl-vinyl)-phenol HCl salt]",inhibit developmental angiogenesis of the zebrafish hyaloid vasculature in a statistically significant manner,inhibit developmental angiogenesis of zebrafish intersegmental vessels in a statistically significant manner,
"Cl.Oc1ccc(C=Cc2ccc3ccccc3n2)cc1 [Compound 11B_CC3_HCl, 4-(2-Quinolin-2-yl-vinyl)-phenol HCl salt]",,inhibit developmental angiogenesis of zebrafish intersegmental vessels in a statistically significant manner,
"Cl.Oc1ccccc1CCc1ccc2ccccc2n1 [Compound 11B_CC4_HCl, 2-(2-Quinolin-2-yl-ethyl)-phenol HCl salt]",inhibit developmental angiogenesis of the zebrafish hyaloid vasculature in a statistically significant manner,inhibit developmental angiogenesis of zebrafish intersegmental vessels in a statistically significant manner,"dose-dependent inhibition of development of hyaloid vessels ([1]; HCl salt): inhibit developmental angiogenesis of zebrafish hyaloid vasculature in a dose-dependent statistically significant manner; dose-dependent inhibition of development of hyaloid vessels ([1]; listed as 11B-CC4 HCl, HCl salt): dose-dependent effect"
"Oc1cccc(CCc2ccc3ccccc3n2)c1 [Compound 11B_CC5, 3-(2-Quinolin-2-yl-ethyl)-phenol]",inhibit developmental angiogenesis of the zebrafish hyaloid vasculature in a statistically significant manner,,
"Cl.Oc1cccc(CCc2ccc3ccccc3n2)c1 [Compound 11B_CC5_HCl, 3-(2-Quinolin-2-yl-ethyl)-phenol HCl salt]",inhibit developmental angiogenesis of the zebrafish hyaloid vasculature in a statistically significant manner,inhibit developmental angiogenesis of zebrafish intersegmental vessels in a statistically significant manner,"dose-dependent inhibition of development of hyaloid vessels ([1]; HCl salt): inhibit developmental angiogenesis of zebrafish hyaloid vasculature in a dose-dependent statistically significant manner; dose-dependent inhibition of development of hyaloid vessels ([1]; listed as 11B-CC5 HCl, HCl salt): dose-dependent effect"
"C/C(=C\c1ccccc1O)c1ccc2ccccc2n1 [Compound 11B_CC11, (E)-2-(2-Quinolin-2-yl-propenyl)-phenol]",inhibit developmental angiogenesis of the zebrafish hyaloid vasculature in a statistically significant manner,inhibit developmental angiogenesis of zebrafish intersegmental vessels in a statistically significant manner,
"Oc1ccc(O)c(/C=C/c2ccc3ccccc3n2)c1 [Compound 11B_CC12, (E)-2-(2-Quinolin-2-yl-vinyl)--benzene-1,4-diol]",,,"inhibition of developmental angiogenesis of intersegmental vessels (number of intersegmental vessels) ([2]; 11B_CC12 tested at 2.5 μM, n=2): inhibit developmental angiogenesis of zebrafish intersegmental vessels in a statistically significant manner"
"Oc1cccc(C#Cc2ccc3ccccc3n2)c1 [Compound 11B_CC15, 3-Quinolin-2-yl-ylethynyl-phenol]",,inhibit developmental angiogenesis of zebrafish intersegmental vessels in a statistically significant manner,
"Cl.Oc1cccc(C#Cc2ccc3ccccc3n2)c1 [Compound 11B_CC15_HCl, 3-Quinolin-2-yl-ylethynyl-phenol HCl salt]",,inhibit developmental angiogenesis of zebrafish intersegmental vessels in a statistically significant manner,
"Oc1ccccc1/C=C\c1ccc2ccccc2n1 [Compound 11B_Z, (Z)-2-(2-(Quinolin-2-yl)vinyl) phenol]",inhibit developmental angiogenesis of the zebrafish hyaloid vasculature in a statistically significant manner,inhibit developmental angiogenesis of zebrafish intersegmental vessels in a statistically significant manner,
"CCOc1cc2c(cc1OCC)C(c1cc3c(cc1Br)OCO3)NCC2 (stereo not shown) [Compound 11F-001, 1-(6-bromo-1,3-benzodioxol-5-yl)-6,7-diethoxy-1,2,3,4-tetrahydroisoquinoline]",inhibit developmental angiogenesis of the zebrafish hyaloid vasculature in a statistically significant manner,,
"COc1cc(CN2CCc3ccccc3C2)cc2c1OCO2 [Compound 11F-708, 2-[(7-methoxy-1,3-benzodioxol-5-yl)methyl]-1,2,3,4-tetrahydroisoquinoline]",inhibit developmental angiogenesis of the zebrafish hyaloid vasculature in a statistically significant manner,,
"Oc1ccc(-c2ccc3c(c2)OCO3)cc1CN1CCc2ccccc2C1 [Compound 11F-978, 4-(1,3-benzodioxol-5-yl)-2-(3,4-dihydro-2(1H)-isoquinolinylmethyl)phenol]",inhibit developmental angiogenesis of the zebrafish hyaloid vasculature in a statistically significant manner,,
